Measured values as given in the supplement of paper PMC10307832.

What was measured:
Experiment in all cases: relative viability (nuclei count vs DMSO), 5 days (fraction); higher = more cells survive
[1] = compound: CCn1c(-c2nonc2N)nc2c(C#CC(C)(C)O)ncc(OC[C@H]3CCCNC3)c21 + Cc1nc(Nc2ncc(C(=O)Nc3c(C)cccc3Cl)s2)cc(N2CCN(CCO)CC2)n1 [Dasatinib] (partner 0.075 µM)
How it was run: (§1)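 Values are medians from duplicate plates. Each reflects relative viability, defined as the nuclei count of treated wells over that of vehicle wells. Lung cancer cell lines in 1536-well plates were pin-tool dosed one day after seeding with one drug alone or with a fixed anchor-drug dose plus five library-drug doses (not always all listed) in √10 steps, then fixed, stained and imaged at 4× after 5 days.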

[2] = compound: CCn1c(-c2nonc2N)nc2c(C#CC(C)(C)O)ncc(OC[C@H]3CCCNC3)c21 + NC(=O)Nc1cc(-c2cccc(F)c2)sc1C(=O)N[C@H]1CCCNC1 [AZD7762] (partner 0.2 µM)
How it was run: as §1

[3] = compound: CCn1c(-c2nonc2N)nc2c(C#CC(C)(C)O)ncc(OC[C@H]3CCCNC3)c21 + CCNC(=O)c1noc(-c2cc(C(C)C)c(O)cc2O)c1-c1ccc(CN2CCOCC2)cc1 [Luminespib] (partner 0.01 µM)
How it was run: as §1

[4] = compound: CCn1c(-c2nonc2N)nc2c(C#CC(C)(C)O)ncc(OC[C@H]3CCCNC3)c21 + CC1(C)CCC(c2ccc(Cl)cc2)=C(CN2CCN(c3ccc(C(=O)NS(=O)(=O)c4ccc(N[C@H](CCN5CCOCC5)CSc5ccccc5)c(S(=O)(=O)C(F)(F)F)c4)cc3)CC2)C1 [Navitoclax] (partner 0.5 µM)
How it was run: as §1

Cell Line | relative viability ([1]; first compound 0.01 µM) | relative viability ([1]; first compound 0.03162 µM) | relative viability ([1]; first compound 0.1 µM) | relative viability ([1]; first compound 0.3162 µM) | relative viability ([1]; first compound 1 µM) | relative viability ([2]; first compound 0.01 µM) | relative viability ([2]; first compound 0.03162 µM) | relative viability ([2]; first compound 0.1 µM) | relative viability ([2]; first compound 0.3162 µM) | relative viability ([2]; first compound 1 µM) | relative viability ([3]; first compound 0.01 µM) | relative viability ([3]; first compound 0.03162 µM) | relative viability ([3]; first compound 0.1 µM) | relative viability ([3]; first compound 0.3162 µM) | relative viability ([3]; first compound 1 µM) | relative viability ([4]; first compound 0.01 µM) | relative viability ([4]; first compound 0.03162 µM) | relative viability ([4]; first compound 0.1 µM) | relative viability ([4]; first compound 0.3162 µM) | relative viability ([4]; first compound 1 µM)
201T | 0.576 | 0.644 | 0.516 | 0.51 | 0.597 | 0.679 | 0.713 | 0.628 | 0.51 | 0.68 | 1.04 | 1.03 | 1.02 | 1.03 | 1.03 | 1.21 | 1.22 | 1.26 | 1.19 | 1.17
A549 | – | – | – | – | – | – | – | – | – | – | – | – | – | – | – | 1.16 | 1.35 | 1.28 | 1.08 | 1.06
A-427 | 0.624 | 0.716 | 0.729 | 0.729 | 0.793 | 0.701 | 0.767 | 0.747 | 0.696 | 0.777 | 0.944 | 1.03 | 0.77 | 0.867 | 0.946 | 0.941 | 0.955 | 0.913 | 0.973 | 1.02
ABC-1 | 0.531 | 0.455 | 0.612 | 0.448 | 0.559 | 0.705 | – | 0.568 | 0.716 | 0.594 | – | 0.533 | 1.04 | 0.403 | 0.682 | – | – | – | – | –
BEN | 0.308 | 0.289 | 0.304 | 0.337 | 0.398 | 0.629 | 0.696 | 0.562 | 0.686 | 0.696 | 0.235 | 0.337 | 0.332 | 0.571 | 0.452 | 0.0596 | 0.0766 | 0.0603 | 0.0534 | 0.0741
CAL-12T | 0.404 | 0.459 | 0.343 | 0.323 | 0.326 | 0.556 | 0.651 | 0.567 | 0.624 | 0.708 | 0.234 | 1.07 | 0.431 | 0.362 | 0.427 | 1.24 | 1.22 | 1.3 | 1.33 | 1.06
COR-L23 | 0.521 | 0.445 | 0.505 | 0.467 | 0.534 | – | – | – | – | – | 0.669 | 0.642 | 0.696 | 0.57 | 0.568 | 0.838 | 1.05 | 1.01 | 0.968 | 1.03
COR-L 105 | 0.365 | 0.326 | 0.357 | 0.353 | 0.287 | – | – | – | – | – | 0.621 | 0.868 | 0.709 | 0.775 | 0.923 | 0.613 | 0.715 | 0.74 | 0.67 | 0.654
Calu-6 | – | – | – | – | – | – | – | – | – | – | – | – | – | – | – | 0.75 | 0.797 | 0.827 | 0.86 | 0.983
ChaGo-K-1 | 0.621 | 0.636 | 0.55 | 0.58 | 0.6 | 0.87 | 0.885 | 0.868 | 0.836 | 0.758 | 0.564 | 0.588 | 0.655 | 0.535 | 0.505 | 1.1 | 0.88 | 0.951 | 0.899 | 1.14
EBC-1 | – | – | – | – | – | – | – | – | – | – | – | – | – | – | – | 0.393 | 0.433 | 0.358 | 0.235 | 0.188
EKVX | 0.508 | 0.629 | 0.533 | 0.568 | 0.525 | 0.699 | 0.687 | 0.632 | 0.732 | 0.596 | 0.788 | 0.887 | 0.867 | 0.878 | 0.911 | 0.882 | 0.858 | 0.927 | 0.908 | 0.853
EMC-BAC-2 | 0.302 | 0.29 | 0.333 | 0.297 | 0.34 | 1.11 | 1.04 | 1.08 | 0.94 | 1.17 | 1.18 | 1.17 | 1.23 | 1.18 | 1.21 | 1.17 | 1.18 | 1.15 | 1.07 | 1.13
EPLC-272H | 0.357 | 0.413 | 0.382 | 0.334 | 0.397 | 0.198 | 0.171 | 0.17 | 0.192 | 0.211 | 0.228 | 0.141 | 0.311 | 0.262 | 0.309 | 1.24 | 1.21 | 0.932 | 1.16 | 0.906
H3255 | 0.323 | 0.412 | 0.378 | 0.284 | 0.305 | 0.857 | 0.943 | 1 | 0.839 | 0.846 | 0.84 | 0.754 | 0.838 | 0.771 | 0.958 | 0.526 | 0.571 | 0.429 | 0.407 | 0.466
HARA | 0.239 | 0.239 | 0.245 | 0.218 | 0.288 | 0.269 | 0.629 | 0.485 | 0.156 | 0.299 | 0.942 | 0.222 | 0.666 | 0.585 | 0.603 | 1.09 | 1.2 | 1.14 | 1.16 | 1.14
HCC-15 | 0.57 | 0.548 | 0.651 | 0.482 | 0.532 | 1.2 | 1.26 | 1.17 | 1.13 | 1.37 | 0.291 | 0.26 | 0.468 | 0.345 | 0.268 | 0.72 | 0.752 | 0.721 | 0.634 | 0.653
HCC-44 | – | – | – | – | – | 1.03 | 0.946 | 0.997 | 1.12 | 1.08 | – | – | 0.994 | 0.906 | 1.21 | 0.938 | 0.956 | 0.944 | 0.851 | 0.981
HCC-78 | 0.344 | 0.361 | 0.423 | 0.291 | 0.389 | 0.627 | 0.532 | 0.579 | 0.614 | 0.445 | – | – | – | – | – | 0.661 | 0.826 | 0.678 | 0.654 | 0.71
